The source of these data is PubChem BioAssay (NCI).

“And” between values parts separate entries of the source, which are not always exact repeats. Identical values can stand only once.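 Dose response: 5 concentrations. Exposure: 48 h. Format: 96-well plates. Endpoint: linear interpolation; highest concentration if not reached. GI50 marks 50% less growth. TGI marks complete inhibition of growth.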

Holding throughout (assay): growth of human tumour cells (NCI), 48 h
In test [1] the test system is NCI-H23 lung.
Test [2] deals with OVCAR-3 ovarian.
Test [3] has as its system SK-OV-3 ovarian.
Test [4] deals with SW-620 colon.
Test [5] has as its system SR leukemia.
For test [6], the system named is HOP-62 NSCLC.
For test [7], the system named is OVCAR-8 ovarian.
The test system of test [8] is M14 melanoma.
For test [9], the system named is SF-295 CNS.
Test [10] relates to SK-MEL-5 melanoma.

As for `O=C(NCO)NCOCn1c(=O)n(CO)c(=O)n(CO)c1=O`, the TGI in [1] is 36.3 µM; in [2], above 100 µM; in test [3], above 100 µM; in test [4], 56.4 µM; in [5], 81.9 µM; in [6], above 100 µM. Moreover, the TGI in test [7] is above 100 µM; in test [8] it was 31.7 µM; in [9], above 100 µM; in test [10], above 83 µM.

Regarding `Clc1ccc(C=Nc2ccc3c(c2)Cc2ccccc2-3)c(Cl)c1`, the TGI in test [1], in test [2], in test [3], in test [4], in test [5] and in test [6] was above 100 µM throughout. Moreover, the TGI in [7], in test [8], in test [9] and in test [10] was above 100 µM throughout.

For the compound `O=C1CC2c3ccccc3CCC2c2ccccc21` (centres undefined), the TGI was 69 µM in test [1]; 41.8 µM in [2]; above 100 µM in test [3]; above 100 µM in test [4]; above 100 µM in [5]; above 100 µM in test [6]. Also, the TGI in [7] is 53.9 µM; in [8], 33.4 µM; in test [9], 49.7 µM; in test [10] it was 31 µM.

As for `O=C(/C=C\c1ccc(NCc2ccc(C(=O)O)cc2)cc1)CCl`, the GI50 in test [1] is 15.5 µM; in [2], 11.7 µM; in [3], 15.1 µM; in test [4], 3.14 µM; in [5], 3.33 µM; in test [6], 15.5 µM. For the same compound, the GI50 in test [7] was 6.98 µM; in test [8] it was 15 µM; in [9], 17.5 µM; in test [10], 17.2 µM. The TGI came to 31 µM in test [1]; 24.6 µM in [2]; 28.8 µM in [3]; 11.6 µM in test [4]; 10.9 µM in test [5]; 29.6 µM in test [6]. Besides, the TGI in [7] worked out at 19.9 µM; in [8] it was 35.3 µM; in test [9], 34.3 µM; in [10], 34.5 µM.

For the compound `CCCSc1nc(COC(=O)NC)c(COC(=O)NC)n1C`, the TGI in [1], in test [2], in [3], in test [4], in [5] and in [6] was above 100 µM in each case. Moreover, the TGI in [7], in [8], in test [9] and in [10] was above 100 µM throughout.

Take `C#Cc1c(I)n(C2OC(CO[Si](C)(C)C(C)(C)C)C3OC(C)(C)OC32)c(=O)[nH]c1=O` (centres undefined): the GI50 is 18.9 µM in [1]; 1.65 µM in test [2]; 33.2 µM in [3]; 2.36 µM in test [4]; 2.62 µM in [5]; 20 µM in test [6]. The GI50 in test [7] is 12.1 µM; in test [8], 16.3 µM; in test [9] it was 28.4 µM; in test [10] it was 13.1 µM. Besides, the TGI in test [1] is 39.6 µM; in test [2], 3.56 µM; in test [3], above 100 µM; in [4], 6.42 µM; in [5], 12.8 µM; in test [6], 38.4 µM. For the same compound, the TGI in [7] came to 27.8 µM; in [8], 33.3 µM; in test [9], 98.7 µM; in [10], 27.1 µM.

Regarding `CCc1nc(C(N)=O)c(Nc2ccc(N3CCC(N4CCN(C)CC4)CC3)c(OC)c2)nc1NC1CCOCC1`, the GI50 in [1] is 1.48 µM and 0.386 µM and 1.2 µM; in [2], 8.01 µM and 3.69 µM and 9.27 µM; in test [3], 1.57 µM and 0.397 µM and 1.51 µM; in test [4] it was 1.33 µM and 0.366 µM and 1.29 µM; in [5] it was < 0.0135 µM and 0.0021 µM and 0.013 µM; in [6], 1.26 µM and 0.238 µM and 1.2 µM. Moreover, the GI50 in test [7] was 10.3 µM and 1.62 µM and 10.1 µM; in test [8], 1.1 µM and 0.253 µM and 0.961 µM; in test [9], 3.59 µM and 1.02 µM and 4.54 µM; in [10], 12.4 µM and > 10 µM and 13.2 µM. Moreover, the TGI in test [1] is 23.5 µM and > 2.7 µM and 24.7 µM; in [2] it was 22.9 µM and > 10 µM; in test [3], 12.3 µM and > 10 µM and 13.8 µM; in test [4], 13.6 µM and > 10 µM and 14.8 µM; in test [6], 16.3 µM and > 2.98 µM and 17.6 µM; in test [7] it was 36.8 µM and > 10 µM and 30.2 µM. For the same compound, the TGI in test [8] was 16.4 µM and > 2.57 µM and 17.9 µM; in test [9] it was 15.3 µM and > 3.5 µM and 17.3 µM; in test [10], 25.4 µM and > 10 µM and 26.4 µM.

As for `COc1ccc(OC)c2c(C(=O)O)c(Cc3ccccc3)ccc12`, the TGI in [1], in test [2], in test [3], in test [4], in [5] and in test [6] was above 100 µM each time. Also, the TGI in test [7], in [8], in test [9] and in test [10] was above 100 µM throughout.

Regarding `CCOC(=O)NC(=O)c1cn(CCCOC(=O)CCCCCCCCCCC(=O)OCCCn2cc(C(=O)NC(=O)OCC)c(=O)[nH]c2=O)c(=O)[nH]c1=O`, the TGI in [1], in test [2], in test [3], in test [4], in test [5] and in test [6] was above 100 µM in each case. The TGI in [7], in test [8], in test [9] and in [10] was above 100 µM throughout.

For the compound `O=c1cccc(C#CC#CC2=CCCCC2)o1`, the GI50 in test [1] is 1.14 µM; in test [2], 6.66 µM; in test [3], 10.5 µM; in test [4], 3.4 µM; in test [5], 0.0307 µM; in test [6], 8.65 µM. Besides, the GI50 was 2.21 µM in test [7], 2.13 µM in test [8], 9.04 µM in test [9] and 3.3 µM in [10]. Besides, the TGI in [1] was determined as 2.87 µM; in test [2] it was 10.4 µM; in test [3], 27.9 µM; in test [4] it was 18.2 µM; in [5], 23.4 µM; in [6], 16.3 µM. Further, the TGI in test [7] was determined as 6.32 µM; in test [8] it was 6.34 µM; in test [9], 16.4 µM; in test [10], 8.89 µM.
